Measurements as given in US20220143222A1, “SUBCUTANEOUS AND INTRAMUSCULAR ADMINISTRATION OF PYRAZINE COMPOUNDS” (MediBeacon Inc., priority 2020, published 2022).
Read-outs that look alike come from different tables or passages of the source.

Test: MB-102 pig plasma concentration after subcutaneous dosing
Type: in vivo
Conditions: 3.2 mpk; for concentration at 15 min / concentration at 30 min / concentration at 45 min / concentration at 60 min / concentration at 75 min / concentration at 90 min / concentration at 105 min / concentration at 120 min / concentration at 135 min / concentration at 150 min / concentration at 165 min / concentration at 180 min / concentration at 195 min / concentration at 210 min / concentration at 225 min / concentration at 240 min / concentration at 255 min / concentration at 270 min / concentration at 285 min / concentration at 300 min / concentration at 315 min / concentration at 330 min / concentration at 345 min / concentration at 360 min: Yorkshire, pig, plasma, subcutaneous, 3.2 mg/kg, read-out: MB-102 Pig Plasma Conc.; for SUM (plasma conc. over time): 15-360 min
Source text: Juvenile Yorkshire pigs weighing approximately 25 kg were anesthetized, their body temperature stabilized, and an IV port surgically placed. A region approximately half-way along the line between the hip and knee joint was selected as the injection site and prepared by cleaning the skin and removing any exposed hair by shaving the selected area at least twice. Similarly, the site where two Quantum Leap fluorescent sensors (disclosed in U.S. Pat. No. 10,548,521) were to be positioned (chest) was prepared by washing and shaving. After the skin was dry the sensors were attached with commercially available skin adhesive and background skin auto-fluorescence measurements were recorded. After about 20 minutes of background fluorescence collection the subject animal was dosed either intravenously (animal 48019) or subcutaneously (animals 52771, 53701 09802, or 1539) or intramuscularly (09801) with PBS-1× formulated MB-102 at 3.2 mg/kg. Injection of the appropriate volume took place over about a minute. […] At this point glomerular elimination of MB-102 by the kidneys led to a decrease of fluorescence signal over time. Blood samples (1.5 mL) were taken immediately prior to the introduction of MB-102 (0 minutes) and at 15 minute intervals throughout the procedure. Blood was collected in BD vacutainer K2EDTA tubes, spun to plasma and stored at −80° C. until analyzed. Subsequently, the processed plasma samples were thawed, diluted with PBS-1× and analyzed by HPLC or UPLC and the concentration of MB-102 determined using standard analytical techniques. Further details for each animal are provided in the examples that follow.
A sterile Mesoderm needle pack was obtained. The needle array featured five (5), 4 mm×30 gauge (0.30 mm dia) luer-hub needles arranged four (4) in a circular, symmetrical pattern (30 mm diameter) about a central needle and were attached via a distribution channel and a second luer-hub to a primary source syringe (3 mL in total deliverable volume). MB-102 API was formulated as 60 mg/mL of sodium salt in 1×PBS and placed in 5 mL serum cap vials. Immediately prior to dosing, the primary syringe was filled with a slight excess of the required amount of formulated MB-102 to achieve 3.2 mg/kg and the needle cap replaced until the subject animal and fluorescence monitor were ready for the experiment to begin and the injection initiated. Subject pig 52771 was dosed with 1.2 mL of MB-102 formulated in PBS-1× (3.2 mg/kg). […] Subject animal fluorescence was obtained during the entire course of the experiment (8 hrs) and blood samples were collected every 15 minutes, processed and stored at −80° C. Comparison of IV MB-102 plasma concentration versus time and subcutaneous MB-102 (both at 3.2 mg/kg dose) plasma concentration versus time are shown in FIG. 1.
Experimental animal Yorkshire pig, 53701, was subject to subcutaneous (subQ) administration of MB-102 as described in Example 8. […] Plasma sampling was conducted as described in Example 8 and the results (Table 1) are plotted in FIG. 1.
Experimental animal Yorkshire pig, 09802, was subject to subcutaneous (subQ) administration of MB-102 using a single needle in the same protocol as Example 8 but substituting a 2 mL syringe equipped with a single 4 mm×30 g needle. […] Plasma sampling was conducted as described in Example 8 and the results (Table 1) are plotted in FIG. 1.

concentration at 15 min (pig 09802, SubQ): 6670 ng/mL | concentration at 30 min (pig 09802, SubQ): 7530 ng/mL | concentration at 45 min (pig 09802, SubQ): 6850 ng/mL | concentration at 60 min (pig 09802, SubQ): 6540 ng/mL | concentration at 75 min (pig 09802, SubQ): 5490 ng/mL | concentration at 90 min (pig 09802, SubQ): 5260 ng/mL | concentration at 105 min (pig 09802, SubQ): 4810 ng/mL | concentration at 120 min (pig 09802, SubQ): 4410 ng/mL | concentration at 135 min (pig 09802, SubQ): 3900 ng/mL | concentration at 150 min (pig 09802, SubQ): 3710 ng/mL | concentration at 165 min (pig 09802, SubQ): 3500 ng/mL | concentration at 180 min (pig 09802, SubQ): 3070 ng/mL | concentration at 195 min (pig 09802, SubQ): 2720 ng/mL | concentration at 210 min (pig 09802, SubQ): 2500 ng/mL | concentration at 225 min (pig 09802, SubQ): 2200 ng/mL | concentration at 240 min (pig 09802, SubQ): 1990 ng/mL | concentration at 255 min (pig 09802, SubQ): 1730 ng/mL | concentration at 270 min (pig 09802, SubQ): 1600 ng/mL | concentration at 285 min (pig 09802, SubQ): 1430 ng/mL | concentration at 300 min (pig 09802, SubQ): 1300 ng/mL | concentration at 315 min (pig 09802, SubQ): 1180 ng/mL | concentration at 330 min (pig 09802, SubQ): 1030 ng/mL | concentration at 345 min (pig 09802, SubQ): 914 ng/mL | concentration at 360 min (pig 09802, SubQ): 829 ng/mL | concentration at 15 min (pig 52771, SubQ): 6130 ng/mL | concentration at 30 min (pig 52771, SubQ): 8510 ng/mL | concentration at 45 min (pig 52771, SubQ): 8790 ng/mL | concentration at 60 min (pig 52771, SubQ): 8840 ng/mL | concentration at 75 min (pig 52771, SubQ): 7840 ng/mL | concentration at 90 min (pig 52771, SubQ): 6920 ng/mL | concentration at 105 min (pig 52771, SubQ): 6070 ng/mL | concentration at 120 min (pig 52771, SubQ): 5560 ng/mL | concentration at 135 min (pig 52771, SubQ): 5000 ng/mL | concentration at 150 min (pig 52771, SubQ): 4400 ng/mL | concentration at 165 min (pig 52771, SubQ): 3950 ng/mL | concentration at 180 min (pig 52771, SubQ): 3480 ng/mL | concentration at 195 min (pig 52771, SubQ): 3190 ng/mL | concentration at 210 min (pig 52771, SubQ): 2830 ng/mL | concentration at 225 min (pig 52771, SubQ): 2500 ng/mL | concentration at 240 min (pig 52771, SubQ): 2240 ng/mL | concentration at 255 min (pig 52771, SubQ): 2000 ng/mL | concentration at 270 min (pig 52771, SubQ): 1760 ng/mL | concentration at 285 min (pig 52771, SubQ): 1630 ng/mL | concentration at 330 min (pig 52771, SubQ): 1210 ng/mL | concentration at 345 min (pig 52771, SubQ): 1140 ng/mL | concentration at 360 min (pig 52771, SubQ): 1000 ng/mL | concentration at 15 min (pig 53701, SubQ): 8110 ng/mL | concentration at 30 min (pig 53701, SubQ): 7410 ng/mL | concentration at 45 min (pig 53701, SubQ): 6620 ng/mL | concentration at 60 min (pig 53701, SubQ): 5940 ng/mL | concentration at 75 min (pig 53701, SubQ): 5260 ng/mL | concentration at 90 min (pig 53701, SubQ): 4720 ng/mL | concentration at 105 min (pig 53701, SubQ): 4230 ng/mL | concentration at 120 min (pig 53701, SubQ): 3670 ng/mL | concentration at 135 min (pig 53701, SubQ): 3250 ng/mL | concentration at 150 min (pig 53701, SubQ): 3000 ng/mL | concentration at 165 min (pig 53701, SubQ): 2640 ng/mL | concentration at 180 min (pig 53701, SubQ): 2390 ng/mL | concentration at 195 min (pig 53701, SubQ): 2170 ng/mL | concentration at 210 min (pig 53701, SubQ): 1940 ng/mL | concentration at 225 min (pig 53701, SubQ): 1670 ng/mL | concentration at 240 min (pig 53701, SubQ): 1510 ng/mL | concentration at 255 min (pig 53701, SubQ): 1350 ng/mL | concentration at 270 min (pig 53701, SubQ): 1220 ng/mL | concentration at 285 min (pig 53701, SubQ): 1090 ng/mL | concentration at 300 min (pig 53701, SubQ): 987 ng/mL | concentration at 315 min (pig 53701, SubQ): 867 ng/mL | concentration at 330 min (pig 53701, SubQ): 800 ng/mL | concentration at 345 min (pig 53701, SubQ): 704 ng/mL | concentration at 360 min (pig 53701, SubQ): 631 ng/mL | SUM (plasma conc. over time) (pig 09802, SubQ): 1,210,924 ng/mL*min | SUM (plasma conc. over time) (pig 52771, SubQ): 1,413,823 ng/mL*min | SUM (plasma conc. over time) (pig 53701, SubQ): 1,077,956 ng/mL*min
Compound: Nc1nc(C(=O)N[C@H](CO)C(=O)O)c(N)nc1C(=O)N[C@H](CO)C(=O)O [MB-102, 3,6-diamino-2,5-bis{N-[(1R)-1-carboxy-2-hydroxyethyl]carbamoyl}pyrazine]
